The text below walks through data of ChEMBL document CHEMBL1201862, “PubChem BioAssay data set” (2004).

Assay in all cases: DTP human tumour cell line panel, 48 h
The test system of assay [1] is SNB-75.
In assay [2] the test system is SNB-19.
Assay [3] has as its system U-251.
The subject of assay [4] is LOX IMVI.
For assay [5], the system named is K562.
Assay [6] relates to MOLT-4.
The test system of assay [7] is HCT-15.
For assay [8], the system named is CCRF-CEM.
Assay [9] concerns RPMI-8226.
Assay [10] concerns HOP-92.
Assay [11] relates to OVCAR-8.
Assay [12] deals with HCT-116.
Assay [13] relates to A549.
The test system of assay [14] is NCI-H23.
In assay [15] the test system is EKVX.
For assay [16], the system named is UO-31.
Assay [17] relates to HT-29.
The subject of assay [18] is OVCAR-3.
In assay [19] the test system is HOP-62.
Assay [20] deals with SF-539.

Each structure is given as a SMILES string.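 96-well plates; 48 h exposure; 5 concentrations. Endpoints by linear interpolation between flanking doses. Not reached: highest tested concentration assigned. GI50 is the concentration that inhibits growth by half.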 The source made the active and inactive calls. No stated cut-off is given here; in the data, active = GI50 up to about 1.1 µM and inactive = higher.

Regarding `COc1cc(C2C(C(=O)O)=C(CO)Oc3cc4c(cc32)OCO4)cc(OC)c1OC` (stereo not given), the GI50 was 40.7 µM (inactive) in [1]; > 100 µM (inactive) in assay [2]; > 100 µM (inactive) in assay [3]; > 100 µM (inactive) in assay [4]; > 100 µM (inactive) in assay [5]; > 100 µM (inactive) in assay [6]. Besides, the GI50 in [7] was greater than 100 µM; in assay [8] it was > 100 µM (inactive); in assay [9], > 100 µM (inactive); in [10], 35.6 µM (inactive); in [11], > 100 µM (inactive); in [12] it was > 100 µM (inactive). In addition, the GI50 in assay [13], in assay [14], in assay [15], in assay [16] and in assay [17] was > 100 µM (inactive) each time.

As to `CN(C)c1ccc(N2C(=S)SC(=N\c3ccccc3)/C2=N/c2ccccc2)cc1`, the GI50 was > 100 µM (inactive) in assay [1]; > 100 µM (inactive) in [2]; > 100 µM (inactive) in [3]; > 100 µM (inactive) in [5]; > 10 µM (inactive) in assay [6]; greater than 100 µM in assay [7]. For the same compound, the GI50 in assay [8], in [9], in assay [18], in assay [11], in assay [12] and in assay [14] was > 100 µM (inactive) each time. Moreover, the GI50 in assay [19] and in assay [16] was > 100 µM (inactive) in each case.

Consider `NC(=S)N/N=C1\c2ccccc2CCC1CCC1(O)CCc2ccccc2C1=O` (stereo not given), for which the GI50 in [1] was 15.7 µM (inactive); in [2] it was 34.8 µM (inactive); in assay [3] it was 28.6 µM (inactive); in [4], 19.3 µM (inactive); in assay [5], > 10 µM (inactive); in [20], 15.3 µM (inactive). Further, the GI50 was 24.5 µM (inactive) in [6]; 39.7 µM in assay [7]; 22.6 µM (inactive) in assay [8]; 24.9 µM (inactive) in assay [9]; 18 µM (inactive) in assay [18]; 16.6 µM (inactive) in assay [11]. Also, the GI50 in [12] is 18.7 µM (inactive); in assay [13], 36.1 µM (inactive); in [14], 25.5 µM (inactive); in assay [19] it was 57.4 µM (inactive); in assay [15], 11.4 µM (inactive); in assay [16], 12 µM (inactive). For the same compound, in [17], the GI50 was 19.8 µM (inactive).

For `COC(=O)C1=C(OC(=O)/C=C/c2ccc(Cl)cc2)C(C(=O)OC)[C@@]2(O)[C@@H](C(=O)OC)[C@H](C)C[C@@H]1[C@@H]2C(=O)OC` (stereo not given in full), the GI50 was 25.9 µM (inactive) in assay [1]; 30.8 µM (inactive) in assay [2]; 28.4 µM (inactive) in assay [3]; 13.1 µM (inactive) in assay [4]; 21.6 µM (inactive) in [5]; 17.6 µM (inactive) in assay [20]. Further, the GI50 in [6] was 15.8 µM (inactive); in assay [7], 19.3 µM; in [8], 13.2 µM (inactive); in [18], 30.8 µM (inactive); in assay [11], 14.6 µM (inactive); in assay [12], 23.8 µM (inactive). Moreover, the GI50 in assay [13] is 23.2 µM (inactive); in assay [14], 19.5 µM (inactive); in assay [19], 28.8 µM (inactive); in assay [15] it was 22.5 µM (inactive); in [16] it was 27 µM (inactive); in [17], 26.1 µM (inactive).

`COC(=O)c1ccc(N/C=C(/C#N)c2ccsc2)cc1`: the GI50 was 6.68 µM (inactive) in assay [1]; 12.2 µM (inactive) in assay [2]; 6.92 µM (inactive) in assay [3]; > 100 µM (inactive) in [5]; 15.9 µM (inactive) in [20]; > 100 µM (inactive) in [6]. Besides, the GI50 in assay [7] is 50.9 µM; in assay [8], > 100 µM (inactive); in [9] it was 20.7 µM (inactive); in assay [18], 9.66 µM (inactive); in assay [11], 6.61 µM (inactive); in assay [12] it was 8.57 µM (inactive). Further, the GI50 is 15.4 µM (inactive) in assay [13]; 10.7 µM (inactive) in assay [14]; 13.3 µM (inactive) in assay [19]; 15.9 µM (inactive) in [15]; 14.4 µM (inactive) in assay [16]; 11.1 µM (inactive) in assay [17].

`COc1ccc2c(c1)c1cc(OC)ccc1n2CCCCOc1ccc(-c2c3ccccc3c(-c3ccc(OCCCCn4c5ccc(OC)cc5c5cc(OC)ccc54)cc3)c3ccccc23)cc1`: the GI50 in assay [1], in assay [2], in [4], in [5], in assay [20] and in [6] was > 100 µM (inactive) in each case. Further, the GI50 in assay [7] is greater than 100 µM; in assay [8] it was > 100 µM (inactive); in assay [10], > 100 µM (inactive); in assay [18] it was > 100 µM (inactive); in assay [11], > 100 µM (inactive); in assay [12] it was > 100 µM (inactive). For the same compound, the GI50 in assay [13], in assay [19], in [15] and in assay [16] was > 100 µM (inactive) in each case.

`COc1ccc(C(=O)/C(Br)=C/C(=O)O)cc1`: the GI50 in assay [1] is 35.5 µM (inactive); in [2], 77.6 µM (inactive); in assay [3] it was 15.6 µM (inactive); in [4], 20.5 µM (inactive); in [5], 29.5 µM (inactive); in [6] it was 17.6 µM (inactive). Moreover, the GI50 was 23.5 µM in assay [7]; 11.5 µM (inactive) in assay [9]; 28.4 µM (inactive) in assay [10]; 21 µM (inactive) in [11]; 40.2 µM (inactive) in assay [13]; 26.8 µM (inactive) in [14]. For the same compound, the GI50 in [19] was 17.4 µM (inactive); in [15], 37.8 µM (inactive); in [16], 37.2 µM (inactive); in assay [17], 76.7 µM (inactive).

On to `COc1ccc(/C=C2/C(=O)N(C(=O)c3ccccc3O)N=C2C)cc1OC`, for which the GI50 in assay [3] was 0.202 µM (active); in assay [4], 0.603 µM (active); in [20] it was 0.241 µM (active); in assay [6], 21.2 µM (inactive); in assay [7] it was 0.64 µM; in assay [8], 0.337 µM (active). Further, the GI50 in assay [9] is 1.72 µM (inactive); in assay [10], 0.326 µM (active); in assay [18], 0.374 µM (active); in assay [11] it was 0.568 µM (active); in assay [12], 0.275 µM (active); in assay [13], 0.33 µM (active). In addition, the GI50 in assay [14] was 0.248 µM (active); in assay [19], 1.99 µM (inactive); in [15], 1.38 µM (inactive); in assay [16], 0.202 µM (active); in assay [17], 16.8 µM (inactive).

For orientation: GI50 means the concentration giving 50% growth inhibition.
